Measured values as given in EP0394118B1, “2,6-Aminoheptanedioic acid unsaturated derivatives, process for their preparation and their use as medicaments” (ROUSSEL-UCLAF, priority 1989, dated 1990).

What was measured:
Experiment in all cases: Antibacterial activity in vitro, agar diffusion method in Davis Mingioli medium
Assay type in all cases: cell-based
[1] = system: Enterobacter cloacae 1321E; conditions: 100 mg/l aqueous solution in 9 mm wells, incubation 24 h at 37°C, read-out: zones d'inhibition (diamètre en mm)
Procedure: (§1) L'activité antibactérienne des produits revendiqués a été déterminée par la méthode de diffusion en milieu de Davis Mingioli additionné de 1% d'agar. Les géloses utilisées sont coulées en boîtes de Petri à 48°C, après ensemencement à […] au moyen de la souche bactérienne test. Les inocula proviennent d'une pré-culture de 24 heures en bouillon de Davis Mingioli. Après durcissement des géloses, les solutions aqueuses des produits étudiés sont introduites dans des puits (9 mm) creusés dans le milieu à l'aide d'un emporte-pièce. Les zones d'inhibition observées (diamètre en mm) sont mesurées après incubation de 24 heures à 37°C.

Escherichia Coli 078 = conditions: COLI078, 100 mg/l aqueous solution in 9 mm wells, incubation 24 h at 37°C, read-out: zones d'inhibition (diamètre en mm)
Procedure: as §1

Providencia sp. DU48 = conditions: 100 mg/l aqueous solution in 9 mm wells, incubation 24 h at 37°C, read-out: zones d'inhibition (diamètre en mm)
Procedure: as §1

[2] = system: Salmonella typhimurium MZ11; conditions: Salmonella enterica, 100 mg/l aqueous solution in 9 mm wells, incubation 24 h at 37°C, read-out: zones d'inhibition (diamètre en mm)
Procedure: as §1

Row | Compound | zone of inhibition at 100 µg/mL [1] [mm] | zone of inhibition at 100 µg/mL (Escherichia Coli 078) [mm] | zone of inhibition at 100 µg/mL (Providencia sp. DU48) [mm] | zone of inhibition at 100 µg/mL [2] [mm]
1 | C=CC(N)(CC(=C)CC(N)C(=O)O)C(=O)O (stereo not drawn) [exemple 4, Acide 2,6-diamino 2-éthényl 4-méthylène heptanedioïque] | 26 | 17.5 | 29 | 31
2 | C=C(CC(N)C(=O)O)CC(N)(CC)C(=O)O (stereo not drawn) [exemple 7, Acide 2,6-diamino 2-éthyl 4-méthylène heptanedioïque] | 29 | 18 | 28 | 34
3 | C#CC(N)(CC(=C)CC(NCc1ccccc1)C(=O)O)C(=O)O (stereo not drawn) [exemple 10, Acide 2-amino 2-éthynyl 4-méthylène 6-[(phénylméthyl)amino] heptanedioïque] |  |  |  | 19
